Data published in patent US8461181B2, “Fused heterocyclic compound and use thereof” (Sumitomo Chemical Company, Ltd., priority 2009, dated 2013).

Legend:
Format in all cases: in vivo
Aphis gossypii [1] = assay: Test Example 2: foot drench of cucumber seedling on urethane mat, Aphis gossypii; settings: soil, 168 h, 5 ml drench at foot of cucumber seedling on urethane mat, inoculated one day after treatment, checked seven days after
Experimental: The formulations of the present active compounds (4), (5), (8), (9), (11), (12), (14), (15), (17), (20), (35) to (45), (48) to (51), (54) to (56), (206), (209) and (211) to (213) obtained by Formulation Example 5 were diluted with water so that the active ingredient concentration was 500 ppm, to prepare diluted solutions for test. Separately, a cucumber seedling (second true leaf spreading stage) planted on a urethane mat was drenched at its foot with each 5 ml of the diluted solutions, and one day after treatment, the cucumber leaf surface was inoculated with 30 Aphis gossypii (whole stage). Further seven days after, the number of insect of living Aphis gossypii […] on the leaves of this cucumber was checked, and the control value was calculated according to the following formula. Control value (%)={1-(Cb×Tai)/(Cai×Tb)}×100 Letters in the formula represent the following meanings. Cb: the number of insect before treatment on non-treated district Cai: the number of insect in observation on non-treated district Tb: the number of insect before treatment on treated district Tai: the number of insect in observation on treated district

Nilaparvata lugens [2] = assay: Test Example 9: foot drench of rice seedling, twenty first instar larvae of Nilaparvata lugens; settings: soil, 144 h, 5 ml drench at foot of rice seedling, kept 7 days, twenty first instar larvae released, further 6 days
Experimental: The formulations of the present active compounds (6), (7), (18), (22), (25), (30), (33), (46), (47), (53), (101) to (103), (106), (121) to (124), (126) to (128), (135), (139), (216) and (217) obtained by Formulation Example 5 were diluted with water so that the active ingredient concentration was 500 ppm, to prepare diluted solutions for test. Separately, a rice seedling (2 weeks after sowing, second leaf spreading stage) planted on a plastic cup was drenched at its foot with each 5 ml of the diluted solutions, and kept in a greenhouse of 25° C. for 7 days. Twenty first instar larvae of Nilaparvata lugens were released, and further kept in the greenhouse for 6 days, then, the number of insect of living Nilaparvata lugens […] on rice was checked, and the control value was calculated according to the following formula. Control value (%)={1-(Cb×Tai)/(Cai×Tb)}×100 Letters in the formula represent the following meanings. Cb: the number of insect before treatment on non-treated district Cai: the number of insect in observation on non-treated district Tb: the number of insect before treatment on treated district Tai: the number of insect in observation on treated district

Nilaparvata lugens [3] = assay: Test Example 8: spray on rice seedling, 20 first instar larvae of Nilaparvata lugens; settings: 144 h, 10 ml sprayed on rice seedling, 20 first instar larvae released, 6 days at 25° C.
Experimental: The formulations of the present active compounds (6), (7), (18), (21), (24), (25), (28) to (30), (32), (46), (52), (101) to (103), (105) to (107), (111), (112), (115), (119) to (124), (126) to (130), (133) to (135), (139), (142), (144) to (146), (149) to (151), (153), (154), (216) and (217) obtained by Formulation Example 5 were diluted with water so that the active ingredient concentration was 500 ppm, to prepare spray solutions for test. Separately, on a rice seedling (2 weeks after sowing, second leaf spreading stage) planted on a plastic cup, the drug solutions for test prepared as described above were sprayed each in an amount of 10 ml. After drying of the drug solution sprayed on rice, 20 first instar larvae of Nilaparvata lugens were released, and kept in a greenhouse of 25° C. for 6 days. Thereafter, the number of Nilaparvata lugens […] on rice was checked, and the control value was calculated according to the following formula. Control value (%)={1-(Cb×Tai)/(Cai×Tb)}×100 Letters in the formula represent the following meanings. Cb: the number of insect before treatment on non-treated district Cai: the number of insect in observation on non-treated district Tb: the number of insect before treatment on treated district Tai: the number of insect in observation on treated district

Aphis gossypii [4] = assay: Test Example 3: root immersion of cucumber seedling, Aphis gossypii; settings: 168 h, cucumber root part immersed in 5 ml, inoculated one day after treatment, checked seven days after
Experimental: The formulations of the present active compounds (18), (19), (21), (22), (24), (25), (28), (31) to (34), (46), (47), (52), (53), (101) to (104), (106) to (108), (112) to (114), (117), (118), (122), (123), (126), (128), (129), (133), (134), (138), (144), (153) to (155) and (157) obtained by Formulation Example 5 were diluted with water so that the active ingredient concentration was 500 ppm, to prepare diluted solutions for test. A root part of a cucumber seedling (first true leaf spreading stage) from which soil had been washed off was immersed in 5 ml of this diluted solution, and one day after treatment, the cucumber leaf surface was inoculated with 30 Aphis gossypii (whole stage). Further seven days after, the number of insect of living Aphis gossypii […] on the leaves of this cucumber was checked, and the control value was calculated according to the following formula. Control value (%)={1-(Cb×Tai)/(Cai×Tb)}×100 Letters in the formula represent the following meanings. Cb: the number of insect before treatment on non-treated district Cai: the number of insect in observation on non-treated district Tb: the number of insect before treatment on treated district Tai: the number of insect in observation on treated district

Aphis gossypii [5] = assay: Test Example 4: foot drench of cucumber seedling in plastic cup, inoculation after 7 days, Aphis gossypii; settings: soil, 144 h, 5 ml drench at foot of cucumber seedling in plastic cup, kept 7 days at 25° C., inoculated, further 6 days
Experimental: The formulations of the present active compounds (3) to (7), (17), (19), (20), (22), (29) to (31), (35) to (37), (39), (41) to (45), (47) to (56), (101), (106), (121) to (123), (128), (131), (137), (139), (143), (145), (147), (211) to (213), (216) and (217) obtained by Formulation Example 5 were diluted with water so that the active ingredient concentration was 500 ppm, to prepare diluted solutions for test. Separately, a cucumber seedling (second true leaf spreading stage) planted on a plastic cup was drenched at its foot with each 5 ml of the diluted solutions, and kept in a greenhouse of 25° C. for 7 days. The cucumber leaf surface was inoculated with 30 Aphis gossypii (whole stage), and further kept in the greenhouse for 6 days, then, the number of insect of living Aphis gossypii […] on the leaves of this cucumber was checked, and the control value was calculated according to the following formula. Control value (%)={1-(Cb×Tai)/(Cai×Tb)}×100 Letters in the formula represent the following meanings. Cb: the number of insect before treatment on non-treated district Cai: the number of insect in observation on non-treated district Tb: the number of insect before treatment on treated district Tai: the number of insect in observation on treated district

Structure (SMILES)	pest or weed control at 500 ppm (Aphis gossypii [1]) [%]	pest or weed control at 500 ppm (Nilaparvata lugens [2]) [%]	pest or weed control at 500 ppm (Nilaparvata lugens [3]) [%]	pest or weed control at 500 ppm (Aphis gossypii [4]) [%]	pest or weed control at 500 ppm (Aphis gossypii [5]) [%]
Cn1c(-c2ccncc2F)nc2cc(C(F)(F)F)ccc21 [present active compound 4, 2-(3-fluoropyridin-4-yl)-1-methyl-5-trifluoromethyl-1H-benzimidazole]	≥ 90	–	–	–	–
Cn1c(-c2ccncc2Cl)nc2cc(C(F)(F)F)ccc21 [present active compound 5, 2-(3-chloropyridin-4-yl)-1-methyl-5-trifluoromethyl-1H-benzimidazole]	≥ 90	–	–	–	–
Cc1cnccc1-c1nc2cc(C(F)(F)F)ccc2n1C [present active compound 6, 1-methyl-2-(3-methylpyridin-4-yl)-5-trifluoromethyl-1H-benzimidazole]	–	≥ 90	≥ 90	–	–
CCc1cnccc1-c1nc2cc(C(F)(F)F)ccc2n1C [present active compound 7, 2-(3-ethylpyridin-4-yl)-1-methyl-5-trifluoromethyl-1H-benzimidazole]	–	≥ 90	≥ 90	–	–
COc1cnccc1-c1nc2cc(C(F)(F)F)ccc2n1C [present active compound 8, 2-(3-methoxypyridin-4-yl)-1-methyl-5-trifluoromethyl-1H-benzimidazole]	≥ 90	–	–	–	–
CCOc1cnccc1-c1nc2cc(C(F)(F)F)ccc2n1C [present active compound 9, 2-(3-ethoxypyridin-4-yl)-1-methyl-5-trifluoromethyl-1H-benzimidazole]	≥ 90	–	–	–	–
Cn1c(-c2ccncc2OC(C)(C)C)nc2cc(C(F)(F)F)ccc21 [present active compound 12, 2-(3-tert-butoxypyridin-4-yl)-1-methyl-5-trifluoromethyl-1H-benzimidazole]	≥ 90	–	–	–	–
Cn1c(-c2ccncc2OCC(F)F)nc2cc(C(F)(F)F)ccc21 [present active compound 14, 2-[3-(2,2-difluoroethoxy)-pyridin-4-yl]-1-methyl-5-trifluoromethyl-1H-benzimidazole]	≥ 90	–	–	–	–
Cn1c(-c2ccncc2OCCF)nc2cc(C(F)(F)F)ccc21 [present active compound 15, 2-[3-(2-fluoroethoxy)-pyridin-4-yl]-1-methyl-5-trifluoromethyl-1H-benzimidazole]	≥ 90	–	–	–	–
Cn1c(-c2ccncc2[S+](C)[O-])nc2cc(C(F)(F)F)ccc21 (stereo not shown) [present active compound 18, 2-(3-methanesulfinylpyridin-4-yl)-1-methyl-5-trifluoromethyl-1H-benzimidazole]	–	≥ 90	≥ 90	≥ 90	–
CCSc1cnccc1-c1nc2cc(C(F)(F)F)ccc2n1C [present active compound 20, 2-(3-ethylthiopyridin-4-yl)-1-methyl-5-trifluoromethyl-1H-benzimidazole]	≥ 90	–	–	–	≥ 90
CCS(=O)(=O)c1cnccc1-c1nc2cc(C(F)(F)F)ccc2n1C [present active compound 22, 2-(3-ethanesulfonylpyridin-4-yl)-1-methyl-5-trifluoromethyl-1H-benzimidazole]	–	≥ 90	–	≥ 90	≥ 90
COCCOc1cnccc1-c1nc2cc(C(F)(F)F)cnc2n1C [present active compound 46, 2-[3-(2-methoxyethoxy)-pyridin-4-yl]-3-methyl-6-trifluoromethyl-3H-imidazo[4,5-b]pyridine]	–	≥ 90	≥ 90	≥ 90	–
CN(C)C(=O)c1cnccc1-c1nc2cc(C(F)(F)F)cnc2n1C [present active compound 139]	–	≥ 90	≥ 90	–	≥ 90
Cc1cnccc1-c1nc2cc(C(F)(F)F)cnc2n1C [present active compound 216, 3-methyl-2-(3-methylpyridin-4-yl-)-6-trifluoromethyl-3H-imidazo[4,5-b]pyridine]	–	≥ 90	≥ 90	–	≥ 90
CCc1cnccc1-c1nc2cc(C(F)(F)F)cnc2n1C [present active compound 217, 2-(3-ethylpyridin-4-yl-)-3-methyl-6-trifluoromethyl-3H-imidazo[4,5-b]pyridine]	–	≥ 90	≥ 90	–	≥ 90
